Experimental findings from PubChem BioAssay AID330 (DTP/NCI, 2004) are described below.

The test system of this test is P388 leukemia ip, CD2F1 mice, survival T/C. Description: NCI In Vivo Anticancer Drug Screen. Data for tumor model P388 Leukemia (intraperitoneal) in CD2F1 (CDF1) mice. The conditions noted are these: endpoint: median survival time, higher = longer survival. The method, boiled down: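 Mice carrying the transplanted tumor received test compound or vehicle. Survival was recorded in each group, and the value is the treated-group measurement divided by that of the vehicle-treated control group.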

Where [1] appears, read: dose: 100.0 mg/kg/injection, schedule: Q04DX002 (ip), vehicle: saline.
Where [2] appears, read: dose: 200.0 mg/kg/injection, schedule: Q04DX002 (ip), vehicle: saline.
Setting [3] is: dose: 50.0 mg/kg/injection, schedule: Q01DX009 (ip), vehicle: saline with Tween-80.
Where [4] appears, read: dose: 200.0 mg/kg/injection, schedule: Q01DX009 (ip), vehicle: saline with Tween-80.
Where [5] appears, read: dose: 50.0 mg/kg/injection, schedule: Q01DX005 (ip), vehicle: saline with Tween-80.
Setting [6] is: dose: 100.0 mg/kg/injection, schedule: Q01DX005 (ip), vehicle: saline with Tween-80.
The mark [7] stands for this setting: dose: 200.0 mg/kg/injection, schedule: Q01DX005 (ip), vehicle: saline with Tween-80.

Where “and” joins values, the source holds several entries; their conditions need not be identical. Equal entries are not always repeated. Toxic doses and inconclusive results are not listed.

Regarding `Cc1nnc(NC(=O)c2cc(=O)c3ccccc3o2)s1`, the T/C (dose: 100.0 mg/kg/injection, schedule: Q04DX002 (ip), vehicle: saline with Tween-80) was 99 % of control; the T/C (dose: 200.0 mg/kg/injection, schedule: Q04DX002 (ip), vehicle: saline with Tween-80) is 94 % of control; the T/C (dose: 400.0 mg/kg/injection, schedule: Q04DX002 (ip), vehicle: saline with Tween-80) was 93 % of control.

In the case of `CC/C(=N/N(C)C)C(=O)OC`, the T/C is 95 % of control under setting [1]; 100 % of control under setting [2]; 98 % of control (dose: 400.0 mg/kg/injection, schedule: Q04DX002 (ip), vehicle: saline).

For `OC1(C#Cc2ccccc2)c2ccccc2C(O)(C#Cc2ccccc2)c2c(C#Cc3ccccc3)cccc21` (centres undefined), the T/C (dose: 12.5 mg/kg/injection, schedule: Q01DX009 (ip), vehicle: saline with Tween-80) was 87 % of control; the T/C (dose: 25.0 mg/kg/injection, schedule: Q01DX009 (ip), vehicle: saline with Tween-80) is 95 % of control; the T/C under setting [3] was 97 % of control; the T/C under setting [4] is 86 % of control.

`COc1cc2c(c(OC)c1OC)-c1ccc(OC)c(=O)cc1[C@@H](NC(=O)c1ccc([N+](=O)[O-])cc1)CC2`: the T/C by setting is: (dose: 0.25 mg/kg/injection, schedule: Q01DX009 (ip), vehicle: Klucel (hydroxypropylcellulose) (HPC)) 109 % of control and 115 % of control; (dose: 0.5 mg/kg/injection, schedule: Q01DX009 (ip), vehicle: Klucel (hydroxypropylcellulose) (HPC)) 114 % of control; (dose: 0.78 mg/kg/injection, schedule: Q01DX009 (ip), vehicle: Klucel (hydroxypropylcellulose) (HPC)) 108 % of control; (dose: 1.0 mg/kg/injection, schedule: Q01DX009 (ip), vehicle: Klucel (hydroxypropylcellulose) (HPC)) 114 % of control and 124 % of control; (dose: 1.56 mg/kg/injection, schedule: Q01DX009 (ip), vehicle: Klucel (hydroxypropylcellulose) (HPC)) 112 % of control; (dose: 2.0 mg/kg/injection, schedule: Q01DX009 (ip), vehicle: Klucel (hydroxypropylcellulose) (HPC)) 124 % of control. In addition, the T/C is 160 % of control (dose: 3.12 mg/kg/injection, schedule: Q01DX009 (ip), vehicle: Klucel (hydroxypropylcellulose) (HPC)); 166 % of control (dose: 4.0 mg/kg/injection, schedule: Q01DX009 (ip), vehicle: Klucel (hydroxypropylcellulose) (HPC)); 198 % of control (dose: 6.25 mg/kg/injection, schedule: Q01DX009 (ip), vehicle: Klucel (hydroxypropylcellulose) (HPC)).

For the compound `C[N+]1(C)CCc2c([nH]c3ccccc23)C1`, the T/C was 95 % of control (dose: 100.0 mg/kg/injection, schedule: Q01DX001 (ip), vehicle: suspension in saline) and 107 % of control (dose: 200.0 mg/kg/injection, schedule: Q01DX001 (ip), vehicle: suspension in saline).

With `COc1cccc(-c2nc(SCC(N)=O)[nH]c(=O)c2C#N)c1`, the T/C under setting [5] was 112 % of control, the T/C under setting [6] is 98 % of control and the T/C under setting [7] was 98 % of control.

Take `O=C(O)CCC(=O)CCl`: the T/C is, setting by setting: (dose: 3.13 mg/kg/injection, schedule: Q01DX009 (ip), vehicle: saline) 109 % of control; (dose: 25.0 mg/kg/injection, schedule: Q04DX003 (ip), vehicle: saline with Tween-80) 104 % of control; (dose: 50.0 mg/kg/injection, schedule: Q04DX003 (ip), vehicle: saline with Tween-80) 108 % of control.

For the compound `COc1ccc(Cc2cc3c(cc2OCC(=O)O)OCO3)cc1`, the T/C was 97 % of control under setting [5], 100 % of control under setting [6] and 93 % of control under setting [7].

In the case of `CN(C)CCCN1CC2CC=CCC2C1` (centres undefined), the T/C is, setting by setting: (dose: 50.0 mg/kg/injection, schedule: Q01DX005 (ip), vehicle: saline) 99 % of control; (dose: 100.0 mg/kg/injection, schedule: Q01DX005 (ip), vehicle: saline) 99 % of control; (dose: 200.0 mg/kg/injection, schedule: Q01DX005 (ip), vehicle: saline) 100 % of control.

`CNC(=S)NNc1ccc(C)cc1`: the T/C is, setting by setting: (dose: 12.5 mg/kg/injection, schedule: Q01DX009 (ip), vehicle: other) 87 % of control; (dose: 25.0 mg/kg/injection, schedule: Q01DX009 (ip), vehicle: other) 90 % of control; (dose: 100.0 mg/kg/injection, schedule: Q01DX009 (ip), vehicle: other) 92 % of control; (dose: 200.0 mg/kg/injection, schedule: Q01DX009 (ip), vehicle: other) 101 % of control.

`CNC(=O)Oc1ccc[nH]c1=O`: the T/C is 106 % of control and 110 % of control (dose: 16.0 mg/kg/injection, schedule: Q01DX009 (ip), vehicle: saline with Tween-80); 106 % of control and 112 % of control (dose: 25.0 mg/kg/injection, schedule: Q01DX009 (ip), vehicle: saline); 102 % of control and 109 % of control (dose: 25.0 mg/kg/injection, schedule: Q01DX009 (sc), vehicle: saline); 112 % of control and 122 % of control (dose: 32.0 mg/kg/injection, schedule: Q01DX009 (ip), vehicle: saline with Tween-80); 116 % of control and 120 % of control (dose: 50.0 mg/kg/injection, schedule: Q01DX009 (ip), vehicle: saline); 109 % of control and 115 % of control (dose: 50.0 mg/kg/injection, schedule: Q01DX009 (sc), vehicle: saline). Besides, the T/C was 120 % of control (dose: 64.0 mg/kg/injection, schedule: Q01DX009 (ip), vehicle: saline with Tween-80); 111 % of control and 113 % of control (dose: 100.0 mg/kg/injection, schedule: Q01DX009 (sc), vehicle: saline); 120 % of control (dose: 128.0 mg/kg/injection, schedule: Q01DX009 (ip), vehicle: saline with Tween-80); 115 % of control and 120 % of control (dose: 200.0 mg/kg/injection, schedule: Q01DX009 (sc), vehicle: saline); 153 % of control (dose: 400.0 mg/kg/injection, schedule: Q01DX009 (ip), vehicle: saline); 122 % of control (dose: 400.0 mg/kg/injection, schedule: Q01DX009 (sc), vehicle: saline).

On to `O=S(=O)(O)C(Nc1ccc(Cl)cc1)c1ccccc1` (centres undefined), for which the T/C by setting is: under setting [3], 100 % of control; (dose: 100.0 mg/kg/injection, schedule: Q01DX009 (ip), vehicle: saline with Tween-80) 105 % of control; under setting [4], 114 % of control.

Turning to `C/C=C(\C)C(=O)OC1C2C(C)=CC(=O)C(O)C2(C)C2C3(O)OCC24C1OC(=O)C(OC(C)=O)C4C(C)C3O` (centres undefined), the T/C is, setting by setting: (dose: 2.5 mg/kg/injection, schedule: Q01DX009 (ip), vehicle: saline) 155 % of control; (dose: 5.0 mg/kg/injection, schedule: Q01DX009 (ip), vehicle: saline) 163 % of control.

For the compound `Cc1nc2ncn(-c3ccccc3)c2c(=O)n1-c1cccnc1`, the T/C (dose: 50.0 mg/kg/injection, schedule: Q01DX005 (ip), vehicle: Klucel (hydroxypropylcellulose) (HPC)) was 105 % of control; the T/C (dose: 100.0 mg/kg/injection, schedule: Q01DX005 (ip), vehicle: Klucel (hydroxypropylcellulose) (HPC)) is 110 % of control; the T/C (dose: 200.0 mg/kg/injection, schedule: Q01DX005 (ip), vehicle: Klucel (hydroxypropylcellulose) (HPC)) is 110 % of control.

On to `CCCCn1c(Cl)c(/C=N\Nc2ccc([N+](=O)[O-])cc2[N+](=O)[O-])c2ccccc21`, for which the T/C runs as follows: (dose: 100.0 mg/kg/injection, schedule: Q04DX003 (ip), vehicle: saline with Tween-80) 94 % of control; (dose: 200.0 mg/kg/injection, schedule: Q04DX003 (ip), vehicle: saline with Tween-80) 90 % of control; (dose: 400.0 mg/kg/injection, schedule: Q04DX003 (ip), vehicle: saline with Tween-80) 88 % of control.

With `OCC1CCCN1` (centres undefined), the T/C by setting is: under setting [1], 102 % of control; under setting [2], 96 % of control.

Consider `CC1(/C=N/NC(N)=O)NC(=O)NC1=O` (centres undefined), for which the T/C under setting [5] was 96 % of control, the T/C under setting [6] is 103 % of control and the T/C under setting [7] is 96 % of control.

In the case of `COC(=O)c1cc2cnc1CSCc1cnc(c(C(=O)OC)c1)CSC2`, the T/C by setting is: under setting [5], 96 % of control; under setting [6], 96 % of control; under setting [7], 96 % of control.

Consider `CCC1=C[C@@H]2C[C@](C(=O)OC)(c3cc4c(cc3OC)N(C)[C@H]3[C@@](O)(C(=O)OC)[C@H](OC(C)=O)[C@]5(CC)C=CCN6CC[C@]43[C@@H]65)c3[nH]c4ccccc4c3CCN(C1)C2=O`, for which the T/C by setting is: (dose: 4.7 mg/kg/injection, schedule: Q01DX001 (ip), vehicle: other) 113 % of control; (dose: 9.4 mg/kg/injection, schedule: Q01DX001 (ip), vehicle: other) 117 % of control; (dose: 37.5 mg/kg/injection, schedule: Q01DX001 (ip), vehicle: suspension in saline) 195 % of control.

Take `CCCCCCCCCCCCCCCC(CCCC)CCCCCC` (centres undefined): the T/C was 100 % of control (dose: 50.0 mg/kg/injection, schedule: Q01DX001 (ip), vehicle: saline sonified); 100 % of control (dose: 100.0 mg/kg/injection, schedule: Q01DX001 (ip), vehicle: saline sonified); 100 % of control (dose: 200.0 mg/kg/injection, schedule: Q01DX001 (ip), vehicle: saline sonified).
